Experimental data published in patent US9156796B2, “Benzoimidazole-carboxylic acid amide derivatives as APJ receptor modulators” (SANOFI, priority 2013, dated 2015).

Target: T1, human apelin receptor (Homo sapiens, UniProt P35414)
T1 construct: expressed in transfected cells
T1 sequence (P35414 1-380): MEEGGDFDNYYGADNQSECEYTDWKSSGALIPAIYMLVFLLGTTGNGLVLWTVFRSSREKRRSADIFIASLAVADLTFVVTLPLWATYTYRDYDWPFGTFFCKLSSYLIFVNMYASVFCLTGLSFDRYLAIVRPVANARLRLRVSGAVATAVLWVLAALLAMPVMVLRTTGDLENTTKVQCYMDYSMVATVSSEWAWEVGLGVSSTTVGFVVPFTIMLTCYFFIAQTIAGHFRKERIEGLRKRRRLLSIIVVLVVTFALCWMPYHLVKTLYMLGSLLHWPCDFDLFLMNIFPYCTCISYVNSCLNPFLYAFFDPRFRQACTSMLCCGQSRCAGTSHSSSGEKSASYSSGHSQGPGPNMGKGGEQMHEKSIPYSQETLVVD
Assay: Determination of agonism on the human apelin receptor by a calcium fluorescence assay (FLIPR)
Format: cell-based
Settings: HEK293 cells stably transfected with human apelin receptor and Giaq protein, Fluo-4 calcium fluorescence, read-out: EC50 (APJ agonism)
Procedure, shortened: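 Agonist EC50s come from peak intracellular calcium transients recorded by FLIPR Tetra, scaled to the 1 μM apelin-13 maximum per plate. Test system: HEK293 stably transfected with human apelin receptor plus Giaq, Fluo-4-loaded (4 μM, 1 h, 37 °C, pH 7.4 buffer with probenecid); ≥7 concentrations, triplicates.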

| EC50 | SMILES |
| --- | --- |
| 2180 nM | CCC(CC)n1c(Cc2cccs2)nc2cc(C(=O)N[C@@H](CC(C)C)C(=O)NCCCOCC3CC3)ccc21 [Example 391, 1-(1-Ethyl-propyl)-2-thiophen-2-ylmethyl-1H-benzoimidazole-5-carboxylic acid [(S)-1-(3-cyclopropylmethoxy-propylcarbamoyl)-3-methyl-butyl]-amide] |
| 1380 nM | CCC(CC)n1c(Cc2cccs2)nc2cc(C(=O)N[C@@H](CC(C)C)C(=O)N(C)CCCC3CCCO3)ccc21 (stereo partly drawn) [Example 392, 1-(1-Ethyl-propyl)-2-thiophen-2-ylmethyl-1H-benzoimidazole-5-carboxylic acid ((S)-3-methyl-1-{methyl-[3-(tetrahydro-furan-2-yl)-propyl]-carbamoyl}-butyl)-amide] |
| 1360 nM | CCC(CC)n1c(Cc2cccs2)nc2cc(C(=O)N[C@@H](CC(C)C)C(=O)NCC3COCCO3)ccc21 (stereo partly drawn) [Example 393, 1-(1-Ethyl-propyl)-2-thiophen-2-ylmethyl-1H-benzoimidazole-5-carboxylic acid {(S)-1-[([1,4]dioxan-2-ylmethyl)-carbamoyl]-3-methyl-butyl}-amide] |
| 2330 nM | CCC(CC)n1c(Cc2cccs2)nc2cc(C(=O)N[C@@H](CC(C)C)C(=O)NCC(C)(C)OC)ccc21 [Example 394, 1-(1-Ethyl-propyl)-2-thiophen-2-ylmethyl-1H-benzoimidazole-5-carboxylic acid [(S)-1-(2-methoxy-2-methyl-propylcarbamoyl)-3-methyl-butyl]-amide] |
| 1760 nM | CCC(CC)n1c(Cc2cccs2)nc2cc(C(=O)N[C@@H](CC(C)C)C(=O)N(C)CC3CCCCO3)ccc21 (stereo partly drawn) [Example 395, 1-(1-Ethyl-propyl)-2-thiophen-2-ylmethyl-1H-benzoimidazole-5-carboxylic acid {(S)-3-methyl-1-[methyl-(tetrahydro-pyran-2-ylmethyl)-carbamoyl]-butyl}-amide] |
| 4040 nM | CCC(CC)n1c(Cc2cccs2)nc2cc(C(=O)N[C@@H](CC(C)C)C(=O)N(CC)CC3CCCCO3)ccc21 (stereo partly drawn) [Example 396, 1-(1-Ethyl-propyl)-2-thiophen-2-ylmethyl-1H-benzoimidazole-5-carboxylic acid {(S)-1-[ethyl-(tetrahydro-pyran-2-ylmethyl)-carbamoyl]-3-methyl-butyl}-amide] |
| 8740 nM | CCC(CC)n1c(Cc2cccs2)nc2cc(C(=O)N[C@@H](CC(C)C)C(=O)NC3COC4(CCCCC4)C3)ccc21 (stereo partly drawn) [Example 397, 1-(1-Ethyl-propyl)-2-thiophen-2-ylmethyl-1H-benzoimidazole-5-carboxylic acid [(S)-3-methyl-1-(1-oxa-spiro[4.5]dec-3-ylcarbamoyl)-butyl]-amide] |
| 5460 nM | CCC(CC)n1c(Cc2cccs2)nc2cc(C(=O)N[C@@H](CC(C)C)C(=O)NC3COC4(CCCC4)C3)ccc21 (stereo partly drawn) [Example 398, 1-(1-Ethyl-propyl)-2-thiophen-2-ylmethyl-1H-benzoimidazole-5-carboxylic acid [(S)-3-methyl-1-(1-oxa-spiro[4.4]non-3-ylcarbamoyl)-butyl]-amide] |
| 99 nM | CCC(CC)n1c(Cc2cccs2)nc2cc(C(=O)N[C@@H](CC(C)C)C(=O)NCc3nnn[nH]3)ccc21 [Example 399, 1-(1-Ethyl-propyl)-2-thiophen-2-ylmethyl-1H-benzoimidazole-5-carboxylic acid {(S)-3-methyl-1-[(1H-tetrazol-5-ylmethyl)-carbamoyl]-butyl}-amide] |
| 70 nM | CCC(CC)n1c(Cc2cccs2)nc2cc(C(=O)N[C@@H](CC(C)C)C(=O)NCCc3nnn[nH]3)ccc21 [Example 400, 1-(1-Ethyl-propyl)-2-thiophen-2-ylmethyl-1H-benzoimidazole-5-carboxylic acid {(S)-3-methyl-1-[2-(1H-tetrazol-5-yl)-ethylcarbamoyl]-butyl}-amide] |
| 600 nM | CCC(CC)n1c(Cc2cccs2)nc2cc(C(=O)N[C@@H](CC(C)C)C(=O)NCCS(N)(=O)=O)ccc21 [Example 401, 1-(1-Ethyl-propyl)-2-thiophen-2-ylmethyl-1H-benzoimidazole-5-carboxylic acid [(S)-3-methyl-1-(2-sulfamoyl-ethylcarbamoyl)-butyl]-amide] |
| 777 nM | CCC(CC)n1c(Cc2cccs2)nc2cc(C(=O)N[C@@H](CC(C)C)C(=O)NCCNS(C)(=O)=O)ccc21 [Example 402, 1-(1-Ethyl-propyl)-2-thiophen-2-ylmethyl-1H-benzoimidazole-5-carboxylic acid [(S)-1-(2-methanesulfonylamino-ethylcarbamoyl)-3-methyl-butyl]-amide] |
| 1610 nM | CCC(CC)n1c(Cc2cccs2)nc2cc(C(=O)N[C@@H](CC(C)C)C(=O)NCC#N)ccc21 [Example 403, 1-(1-Ethyl-propyl)-2-thiophen-2-ylmethyl-1H-benzoimidazole-5-carboxylic acid [(S)-1-(cyanomethyl-carbamoyl)-3-methyl-butyl]-amide] |
| 788 nM | CCC(CC)n1c(Cc2cccs2)nc2cc(C(=O)N[C@@H](CC(C)C)C(=O)NCCC#N)ccc21 [Example 404, 1-(1-Ethyl-propyl)-2-thiophen-2-ylmethyl-1H-benzoimidazole-5-carboxylic acid [(S)-1-(2-cyano-ethylcarbamoyl)-3-methyl-butyl]-amide] |
| 842 nM | CCC(CC)n1c(Cc2cccs2)nc2cc(C(=O)N[C@@H](CC(C)C)C(=O)N(C)Cc3n[nH]c(=O)[nH]3)ccc21 [Example 405, 1-(1-Ethyl-propyl)-2-thiophen-2-ylmethyl-1H-benzoimidazole-5-carboxylic acid {(S)-3-methyl-1-[methyl-(5-oxo-4,5-dihydro-1H-[1,2,4]triazol-3-ylmethyl)-carbamoyl]-butyl}-amide] |
| 1110 nM | CCC(CC)n1c(Cc2cccs2)nc2cc(C(=O)N[C@@H](CC(C)C)C(=O)NCCc3n[nH]c(=O)[nH]3)ccc21 [Example 406, 1-(1-Ethyl-propyl)-2-thiophen-2-ylmethyl-1H-benzoimidazole-5-carboxylic acid {(S)-3-methyl-1-[2-(5-oxo-4,5-dihydro-1H-[1,2,4]triazol-3-yl)-ethylcarbamoyl]-butyl}-amide] |
| 708 nM | CCC(CC)n1c(Cc2cccs2)nc2cc(C(=O)N[C@@H](CC(C)C)C(=O)N3CCC(O)C3)ccc21 (stereo partly drawn) [Example 407, 1-(1-Ethyl-propyl)-2-thiophen-2-ylmethyl-1H-benzoimidazole-5-carboxylic acid [(S)-1-(3-hydroxy-pyrrolidine-1-carbonyl)-3-methyl-butyl]-amide] |
| 447 nM | CCC(CC)n1c(Cc2cccs2)nc2cc(C(=O)N[C@@H](CC(C)C)C(=O)NCC(=O)O)ccc21 [Example 408, ((S)-2-{[1-(1-Ethyl-propyl)-2-thiophen-2-ylmethyl-1H-benzoimidazole-5-carbonyl]-amino}-4-methyl-pentanoylamino)-acetic acid] |
| 491 nM | CCC(CC)n1c(Cc2cccs2)nc2cc(C(=O)N[C@@H](CC(C)C)C(=O)N3CCC[C@H]3C(=O)O)ccc21 [Example 409, (S)-1-((S)-2-{[1-(1-Ethyl-propyl)-2-thiophen-2-ylmethyl-1H-benzoimidazole-5-carbonyl]-amino}-4-methyl-pentanoyl)-pyrrolidine-2-carboxylic acid] |
| 578 nM | CCC(CC)n1c(Cc2cccs2)nc2cc(C(=O)N[C@@H](CC(C)C)C(=O)N3CCC[C@@H]3C(=O)O)ccc21 [Example 410, (R)-1-((S)-2-{[1-(1-Ethyl-propyl)-2-thiophen-2-ylmethyl-1H-benzoimidazole-5-carbonyl]-amino}-4-methyl-pentanoyl)-pyrrolidine-2-carboxylic acid] |
